Assay results from patent US7795242B2, “Methods and compositions for immunomodulation” (The Brigham and Women's Hospital, Inc., priority 2003, dated 2010).

What was measured:
IL1AP T cells = assay: Proliferative response of IL1AP T cells stimulated with antigen and dendritic cells ([3H]-thymidine incorporation); format: cell-based, human; conditions: for stimulation (proliferation) of IL1AP T cells: DC as APC, FIG. 1A, 2B, 6E, 7A
Procedure: The antigens provided herein were identified with T-cell activation assays performed using purified fractions in order to determine their relative ability to activate T-cells. These assays were carried out essentially as described in U.S. Pat. Nos. 5,679,347; 5,853,737; and 6,238,676, and in Rosat et al. J. Immunol. 162:366-371, 1999. Other procedures are well-known in the art.
To generate CD1-restricted T cells that recognize novel antigens, we stimulated human peripheral blood lymphocytes using a method that reduces the outgrowth of MHC-restricted T cells and favors the detection of CD1-restricted T cells. This involves the repeated stimulation of lymphocytes with lipid antigens with monocyte-derived dendritic cells (DC) from donors that differ in their MHC protein expression, so that T cells responding to DC with a given MHC class I or II molecule will not be repeatedly stimulated and therefore […] in T cell lines produced after many rounds of stimulation. DCs were prepared from the peripheral blood of healthy donors by centrifugation over Ficoll-Hypaque, adherence of the mononuclear cells to plastic tissue culture flasks, culture of adherent cells with 300 U/ml GM-CSF and 200 U/ml IL-4 for 3 days, followed by irradiation (3300 R).
DC and T cells were cultured at a 1:5 ratio in the presence of 1 μg/ml LKKRRL mixture to yield T cell lines. T cells lines were used to generate clones by culturing T cells at approximately 1 cell per well with phytohemagglutinin, peripheral blood mononuclear cells, transformed B cell lines and 2 nM IL-2. This protocol yielded a polyclonal T cell line IL1AP and several clones derived there from, which are named IL1AP.15, IL1AP.31.
To assay the proliferative responses of IL1AP T cells, 5*10^4 Polyclonal IL1AP T cells were stimulated with 3*10^4 DC and LKKRRL mixture (FIG. 1A). […] C1R cells transfected with the vector pSRα-NEO, containing the cDNAs encoding human CD1a, CD1b, CD1c, CD1d, or no insert (C1R mock) were used as alternative APC for the stimulation of polyclonal T cells with LKKRRL mixture (FIG. 1C). […]

CD1d [1] = biological target: T1, CD1d (Homo sapiens, UniProt P15813); assay: Competition with αGalCer-mediated NK T cell activation on plate-bound recombinant CD1d; format: cell-based; conditions: FIG. 8; for block of αGalCer-mediated NK T activation: compound added in excess to plate-bound recombinant CD1d
Excerpt: Next, to determine whether PPBF could compete with αGalCer-mediated NK T cell responses, we used an in vitro assay of PPBF added to recombinant CD1d proteins bound to a plate.

CD1d [2] = biological target: T1, CD1d; conditions: Im et al., J Biol Chem., 279:299-310, 2004; cited from earlier work
J.RT3.ABd cells = assay: IL-2 release by J.RT3 cells transfected with IL1AP TCR α and β chains (J.RT3.ABd); format: cell-based; conditions: FIG. 11A
Procedure: We transfected the full-length TCR α and β chains from IL1AP cells into J.RT3 cells to generate a TCR-expressing reporter cell line (J.RT3.ABd). […] To determine whether PPBF could activate through intact CD3 complexes that were reconstituted by transfection of a TCR with irrelevant antigen specificity, J.RT3-T3.5 cells transfected with the TCR α and β chains of the CD8-2 cell line (J.RT3-CD8-2) that recognizes the mycobacterial lipopeptides DDM were tested for IL-2 release upon stimulation with DDM or PPBF.

T cell line IL1AP = assay: IL-2 release by PPBF-reactive T cell line IL1AP with DC as APC (HT-2 bioassay); format: cell-based, human; conditions: IL-2 measured 24 h after stimulation; FIG. 7A
Procedure: Because αGalCer was previously known to function as a potent activator of CD1d-restricted T cell clones known as NK T cells, we sought to determine whether PPBF-reactive T cells and αGalCer-reactive T cells cross react. The PPBF-reactive T cell line IL1AP and the αGalCer-reactive T cell clone J3N.5 were each stimulated with αGalCer and PPBF using DC as APC. IL-2 release was measured 24 h after stimulation. The IL-2 concentration in 50 μl of culture supernatants, harvested 24 hours after T cell stimulation, was determined by adding 10^4 IL-2 starved HT-2 cells in […] medium, and a 6 h pulse after a 24 h incubation.

polyclonal lymphocytes = assay: Proliferative response of polyclonal lymphocytes and T cell clones; format: cell-based, human; conditions: data not shown
Procedure: To determine whether PPBF non-selectively activated polyclonal lymphocyte populations or selectively activated antigen-specific clones present at low precursor frequency in vivo, polyclonal lymphocytes were tested for their proliferative response to PPBF.

Which results are given for 3-methyl-PPBF?
capacity to stimulate IL1AP T cell proliferation relative to PPBF (IL1AP T cells; FIG. 6E): stimulated T cells more potently than PPBF; degree and titer of inhibition of αGalCer-mediated NK T activation compared with 2,6-ANS (CD1d [1]): comparable to that of 2,6-anilonapthalene sulfonic acid; block of αGalCer-mediated NK T activation (CD1d [1]): substantially block αGalCer-mediated NK T activation in a dose-dependent manner

For O=S(=O)(O)c1ccc2cc(Nc3ccccc3)ccc2c1 [2,6-anilonapthalene sulfonic acid], which “binding to CD1d” value (CD1d [2]) is on record?
The value was “has been shown to bind CD1d”.

For Cc1c(C)c(S(=O)(=O)Oc2ccccc2)c(C)c2c1OC(C)(C)C2 [PPBF, phenyl-2,2,4,6,7-pentamethyldihydrobenzofuran-5-sulfonyl], which “stimulation (proliferation) of IL1AP T cells” value (IL1AP T cells) is on record?
The value was “Only the T cell line IL1AP and clones derived therefrom were activated by PPBF”.

And the “stimulation (proliferation) of IL1AP T cells” value (IL1AP T cells; listed as Synthetic PPBF)?
The value was “potently stimulate”.

What about the “degree and titer of inhibition of αGalCer-mediated NK T activation compared with 2,6-ANS” value (CD1d [1]) of the same compound?
Its value is “comparable to that of 2,6-anilonapthalene sulfonic acid”.

And the “block of αGalCer-mediated NK T activation” value (CD1d [1])?
The value was “substantially block αGalCer-mediated NK T activation in a dose-dependent manner”.

And the “IL-2 production by J.RT3.ABd cells upon stimulation” value (J.RT3.ABd cells)?
The value was “conferred the ability to produce IL-2 upon stimulation with PPBF”.

With CCCCCCCCCCCCCCCCCCCCCCCCCC(=O)N[C@@H](CO[C@H]1O[C@H](CO)[C@H](O)[C@H](O)[C@H]1O)[C@H](O)[C@H](O)CCCCCCCCCCCCCC [αGalCer, α-galactosyl ceramide] as the compound, how does the “recognition by IL1AP T cells (IL-2 release)” value (T cell line IL1AP) read?
Its value is “did not recognize αGalCer”.

For phytohemagglutinin [reference compound], which “activation of polyclonal T cells and T cell clones (proliferative response)” value (polyclonal lymphocytes) is on record?
The value was “activated by the mitogen phytohemagglutinin”.
